Data taken from ChEMBL document CHEMBL4808173, “Discovery of Novel Benzimidazole and Indazole Analogues as Tubulin Polymerization Inhibitors with Potent Anticancer Activities” (J Med Chem, 2021).

Legend:
[1] = test system: MCF7; assay: Antiproliferative activity against human MCF7 cells assessed as reduction in cell viability measured after 48 hrs by MTT assay; format: functional, cell-based; details: for IC50: MCF7, 48 h
[2] = test system: HeLa; assay: Antiproliferative activity against human HeLa cells assessed as reduction in cell viability measured after 48 hrs by MTT assay; format: functional, cell-based
[3] = test system: B16-F10; assay: Antiproliferative activity against mouse B16-F10 cells assessed as reduction in cell viability measured after 48 hrs by MTT assay; format: functional, cell-based; details: for IC50: B16-F10, 48 h
[4] = test system: A2780/Taxol; assay: Antiproliferative activity against human A2780T cells assessed as reduction in cell viability measured after 48 hrs by MTT assay; format: functional, cell-based
[5] = test system: A2780S; assay: Antiproliferative activity against human A2780S cells assessed as reduction in cell viability measured after 48 hrs by MTT assay; format: functional, cell-based
[6] = test system: A549; assay: Antiproliferative activity against human A549 cells assessed as reduction in cell viability measured after 48 hrs by MTT assay; format: functional, cell-based; details: for IC50: A549, 48 h
[7] = test system: MCF7; assay: Inhibition of colony formation in human MCF7 cells assessed as decrease in colonies measured after 24 hrs by photographic imaging analysis; format: functional, cell-based; details: dose 0.05-5 µM
[8] = Resistance index, ratio of IC50 for antiproliferative activity against human A2780T cells assessed as reduction in cell viability measured after 48 hrs by MTT assay to IC50 for antiproliferative activity against human A2780S cells assessed as reduction in cell viability measured after 48 hrs by MTT assay; format: functional
[9] = test system: A2780/Taxol; assay: Inhibition of colony formation in human A2780T cells assessed as decrease in colonies measured after 24 hrs by photographic imaging analysis; format: functional, cell-based; details: dose 10-100 nM
[10] = (§1) Inhibition of pig brain tubulin polymerization by spectrophotometric method; format: tissue-based, Sus scrofa
[11] = species on record: Sus scrofa; assay: as §1; format: tissue-based
[12] = Binding affinity to immobilized pig brain tubulin assessed as equilibrium dissociation constant by SPR assay; format: tissue-based, Sus scrofa
[13] = test system: B16-F10; assay: Disruption of microtubule network in mouse […] cells measured after 6 hrs by DAPI staining based immunofluorescence microscopic assay; format: cell-based; details: dose 10-40 nM
[14] = test system: MCF7; assay: Cell cycle analysis in human MCF7 cells assessed as accumulation at G1 phase at 5 nM measured after 48 hrs by RnaseA/propidium iodide staining based flow cytometry (reference value: 53.68 %); format: functional
[15] = test system: MCF7; assay: Cell cycle analysis in human MCF7 cells assessed as accumulation at S phase at 5 nM measured after 48 hrs by RnaseA/propidium iodide staining based flow cytometry (reference value: 27.46 %); format: functional
[16] = test system: MCF7; assay: Cell cycle analysis in human MCF7 cells assessed as accumulation at G2 phase at 5 nM measured after 48 hrs by RnaseA/propidium iodide staining based flow cytometry (reference value: 17.03 %); format: functional
[17] = test system: MCF7; assay: Cell cycle analysis in human MCF7 cells assessed as accumulation at G1 phase at 10 nM measured after 48 hrs by RnaseA/propidium iodide staining based flow cytometry (reference value: 53.68 %); format: functional
[18] = test system: MCF7; assay: Cell cycle analysis in human MCF7 cells assessed as accumulation at S phase at 10 nM measured after 48 hrs by RnaseA/propidium iodide staining based flow cytometry (reference value: 27.46 %); format: functional
[19] = test system: MCF7; assay: Cell cycle analysis in human MCF7 cells assessed as accumulation at G2 phase at 10 nM measured after 48 hrs by RnaseA/propidium iodide staining based flow cytometry (reference value: 17.03 %); format: functional
[20] = test system: MCF7; assay: Cell cycle analysis in human MCF7 cells assessed as accumulation at G1 phase at 20 nM measured after 48 hrs by RnaseA/propidium iodide staining based flow cytometry (reference value: 53.68 %); format: functional
[21] = test system: MCF7; assay: Cell cycle analysis in human MCF7 cells assessed as accumulation at S phase at 20 nM measured after 48 hrs by RnaseA/propidium iodide staining based flow cytometry (reference value: 27.46 %); format: functional
[22] = test system: MCF7; assay: Cell cycle analysis in human MCF7 cells assessed as accumulation at G2 phase at 20 nM measured after 48 hrs by RnaseA/propidium iodide staining based flow cytometry (reference value: 17.03 %); format: functional
[23] = test system: MCF7; assay: Induction of apoptosis in human MCF7 cells assessed as live cells at 5 nM measured after 48 hrs by annexinV-FITC/propidium iodide staining based flow cytometry (reference value: 88.5 %); format: functional
[24] = test system: MCF7; assay: Induction of apoptosis in human MCF7 cells assessed as early apoptotic cells at 5 nM measured after 48 hrs by annexinV-FITC/propidium iodide staining based flow cytometry (reference value: 1.89 %); format: functional
[25] = test system: MCF7; assay: Induction of apoptosis in human MCF7 cells assessed as late apoptotic cells at 5 nM measured after 48 hrs by annexinV-FITC/propidium iodide staining based flow cytometry (reference value: 5.99 %); format: functional
[26] = test system: MCF7; assay: Induction of apoptosis in human MCF7 cells assessed as necrotic cells at 5 nM measured after 48 hrs by annexinV-FITC/propidium iodide staining based flow cytometry (reference value: 2.62 %); format: functional
[27] = test system: MCF7; assay: Induction of apoptosis in human MCF7 cells assessed as live cells at 10 nM measured after 48 hrs by annexinV-FITC/propidium iodide staining based flow cytometry (reference value: 88.5 %); format: functional
[28] = test system: MCF7; assay: Induction of apoptosis in human MCF7 cells assessed as early apoptotic cells at 10 nM measured after 48 hrs by annexinV-FITC/propidium iodide staining based flow cytometry (reference value: 1.89 %); format: functional
[29] = test system: MCF7; assay: Induction of apoptosis in human MCF7 cells assessed as late apoptotic cells at 10 nM measured after 48 hrs by annexinV-FITC/propidium iodide staining based flow cytometry (reference value: 5.99 %); format: functional
[30] = test system: MCF7; assay: Induction of apoptosis in human MCF7 cells assessed as necrotic cells at 10 nM measured after 48 hrs by annexinV-FITC/propidium iodide staining based flow cytometry (reference value: 2.62 %); format: functional
[31] = test system: MCF7; assay: Induction of apoptosis in human MCF7 cells assessed as live cells at 20 nM measured after 48 hrs by annexinV-FITC/propidium iodide staining based flow cytometry (reference value: 88.5 %); format: functional
[32] = test system: MCF7; assay: Induction of apoptosis in human MCF7 cells assessed as early apoptotic cells at 20 nM measured after 48 hrs by annexinV-FITC/propidium iodide staining based flow cytometry (reference value: 1.89 %); format: functional
[33] = test system: MCF7; assay: Induction of apoptosis in human MCF7 cells assessed as late apoptotic cells at 20 nM measured after 48 hrs by annexinV-FITC/propidium iodide staining based flow cytometry (reference value: 5.99 %); format: functional
[34] = test system: MCF7; assay: Induction of apoptosis in human MCF7 cells assessed as necrotic cells at 20 nM measured after 48 hrs by annexinV-FITC/propidium iodide staining based flow cytometry (reference value: 2.62 %); format: functional
[35] = test system: B16-F10; assay: Antimigratory activity in mouse B16-F10 cells assessed as inhibition of cell migration by measuring wound closure at 5 nM measured after 24 hrs (reference value: 51.92 +/- 2.02 %); format: functional; parameters: scale not given: the % may be the effect or the level left
[36] = test system: B16-F10; assay: Antimigratory activity in mouse B16-F10 cells assessed as inhibition of cell migration by measuring wound closure at 10 nM measured after 24 hrs (reference value: 51.92 +/- 2.02 %); format: functional; parameters: scale not given: the % may be the effect or the level left
[37] = test system: B16-F10; assay: Antimigratory activity in mouse B16-F10 cells assessed as inhibition of cell migration by measuring wound closure at 20 nM measured after 24 hrs (reference value: 51.92 +/- 2.02 %); format: functional; parameters: scale not given: the % may be the effect or the level left
[38] = test system: B16-F10; assay: Antimigratory activity in mouse B16-F10 cells assessed as inhibition of cell migration measured after 24 hrs; format: functional, cell-based; details: dose 5-20 nM
[39] = test system: B16-F10; assay: Antitumor activity against mouse B16-F10 cells inoculated in BALB/c mouse assessed as tumor growth inhibition at 15 mg/kg, ip qd for 14 days by caliper method relative to control; format: functional; details: 336 h, time 14 day, read-out: TGI
[40] = test system: B16-F10; assay: Antitumor activity against mouse B16-F10 cells inoculated in BALB/c mouse assessed as tumor growth inhibition at 30 mg/kg, ip qd for 14 days by caliper method relative to control; format: functional; details: 336 h, time 14 day, read-out: TGI
[41] = Acute toxicity in BALB/c mouse inoculated with mouse B16-F10 cells assessed as effect on body weight at 15 mg/kg, ip qd for 14 days; format: organism-based; details: in vivo, 336 h, time 14 day
[42] = Acute toxicity in BALB/c mouse inoculated with mouse B16-F10 cells assessed as effect on liver at 15 to 30 mg/kg, ip qd for 14 days by hematoxylin and eosin staining based analysis; format: organism-based; details: in vivo, 336 h, dose 15-30 mg/kg, time 14 day
[43] = Acute toxicity in BALB/c mouse inoculated with mouse B16-F10 cells assessed as effect on kidney at 15 to 30 mg/kg, ip qd for 14 days by hematoxylin and eosin staining based analysis; format: organism-based; details: in vivo, 336 h, dose 15-30 mg/kg, time 14 day

## COc1cc2c(c(OC)c1OC)-c1ccc(OC)c(=O)cc1[C@@H](NC(C)=O)CC2 [COLCHICINE]
[1]
  IC50: 21 nM
[2]
  IC50: 83 nM
[3]
  IC50: 83 nM
[4]
  IC50: 784 nM
[5]
  IC50: 16.7 nM

## COc1cc(-c2cccc3[nH]c(-c4cccc5c4ccn5C)nc23)cc(OC)c1OC
[1]
  Activity: Dose-Dependent Effect
  IC50: 18 nM
[6]
  Activity: Dose-Dependent Effect
  IC50: 85 nM
[2]
  Activity: Dose-Dependent Effect
  IC50: 68 nM
[3]
  Activity: Dose-Dependent Effect
  IC50: 29 nM
[7]
  inhibition: Dose-Dependent Effect
[4]
  IC50: 9.7 nM
[5]
  IC50: 6.2 nM
[8]
  Ratio IC50: 1.6
[9]
  inhibition: Dose-Dependent Effect
[10]
  IC50: 2520 nM
[11]
  inhibition: Dose-Dependent Effect
[12]
  Kd: 12700 nM
[13]
  Activity: Dose-Dependent Effect
[14]
  Activity: 62.06%
[15]
  Activity: 23.09%
[16]
  Activity: 13.41%
[17]
  Activity: 13.1%
[18]
  Activity: 22.93%
[19]
  Activity: 62.8%
[20]
  Activity: 17.16%
[21]
  Activity: 19.63%
[22]
  Activity: 62.16%
[23]
  Activity: 83.7%
[24]
  Activity: 2.98%
[25]
  Activity: 9.04%
[26]
  Activity: 4.26%
[27]
  Activity: 84.4%
[28]
  Activity: 5.12%
[29]
  Activity: 28.4%
[30]
  Activity: 2.12%
[31]
  Activity: 58.9%
[32]
  Activity: 4.69%
[33]
  Activity: 34.3%
[34]
  Activity: 2.14%
[35]
  Activity: 29.42%
[36]
  Activity: 15.68%
[37]
  Activity: 6.6%
[38]
  inhibition: Dose-Dependent Effect
[39]
  inhibition in vivo at 15 mg/kg: 78.7%
[40]
  inhibition in vivo at 30 mg/kg: 84.3%
[41]
  Activity: Non-Toxic
[42]
  Activity: Non-Toxic
[43]
  Activity: Non-Toxic

## COc1cc(-c2ccc3[nH]nc(-c4cccc(C(=N)NO)c4)c3c2)cc(OC)c1OC
[1]
  IC50: > 10000 nM
[6]
  IC50: > 10000 nM
[2]
  IC50: > 10000 nM
[3]
  IC50: > 10000 nM

## COc1cc(-c2cccc3[nH]c(-c4cccc(C(=N)NO)c4)nc23)cc(OC)c1OC
[1]
  IC50: > 10000 nM
[6]
  IC50: > 10000 nM
[2]
  IC50: > 10000 nM
[3]
  IC50: > 10000 nM

## COc1cc(-c2n[nH]c3ccc(-c4ccc5c(ccn5C)c4)cc23)cc(OC)c1OC
[1]
  IC50: 26 nM
[6]
  IC50: 93 nM
[2]
  IC50: 141 nM
[3]
  IC50: 64 nM

## COc1cc(-c2n[nH]c3ccc(-c4ccc(C)cc4)cc23)cc(OC)c1OC
[1]
  IC50: 43 nM
[6]
  IC50: 531 nM
[2]
  IC50: 265 nM
[3]
  IC50: 54 nM

## COc1cc(-c2n[nH]c3ccc(-c4ccc(F)cc4)cc23)cc(OC)c1OC
[1]
  IC50: 606 nM
[6]
  IC50: 759 nM
[2]
  IC50: 926 nM
[3]
  IC50: 635 nM

## COc1ccc(-c2cc3nccc(-c4cc(OC)c(OC)c([Se]C)c4)n3n2)cc1[N+](=O)[O-]
[1]
  IC50: 6190 nM
[6]
  IC50: > 10000 nM
[2]
  IC50: 7950 nM
[3]
  IC50: 7950 nM

## COc1cc(-c2ccc3[nH]nc(-c4ccc(C#N)cc4)c3c2)cc(OC)c1OC
[1]
  IC50: > 10000 nM
[6]
  IC50: > 10000 nM
[2]
  IC50: > 10000 nM
[3]
  IC50: > 10000 nM
